According to ChEMBL document CHEMBL6092217 (Eur J Med Chem, 2024):
Activity calls are given as the source filed them. The rule behind the calls is not given here.

How the values were obtained:
[1] = Volume of distribution at steady state in Sprague-Dawley rat at 5 mg/kg, iv measured upto 24 hrs by HPLC-MS analysis; format: ADME, organism-based; conditions: in vivo, read-out: Vdss
[2] = tested on: HT-29; assay: Induction of apoptosis in human HT-29 cells assessed as early apoptotic cells at 100 nM incubated for 24 hrs by FITC/PI staining based flow cytometry analysis (reference value: 8.14%); format: functional
[3] = Toxicity in BALB/c mouse assessed as heart damage at 10 to 40 mg/kg, iv measured after 21 days by H and E staining based analysis; format: organism-based; conditions: in vivo, 504 h, dose 10-40 mg/kg, time 21 day
[4] = tested on: HT-29; assay: Antiproliferative activity against human HT-29 cells assessed as cell viability incubated for 72 hrs by MTT assay; format: functional, cell-based; conditions: HT-29, 72 h
[5] = molecular target: Tubulin; assay: (§1) Inhibition of tubulin polymerization (unknown origin) in presence of GTP by fluorescence plate reader analysis; format: protein-complex assay, Homo sapiens
[6] = molecular target: T1, Tubulin (Homo sapiens) (UniProt P68371+Q9H4B7+P0DPH7+P68366+Q13509+Q71U36+P04350+Q3ZCM7+P07437+P68363+Q9BQE3+Q6PEY2+Q13885+Q9BVA1+Q9BUF5); assay: as §1; format: protein-complex assay; conditions: dose 0.625-10 µM
[7] = Toxicity in ICR mouse assessed as effect on RBC count at 10 to 40 mg/kg, iv administered every 2 days and measured after 14 days; format: organism-based; conditions: in vivo, 336 h, dose 10-40 mg/kg, time 14 day
[8] = Clerance in Sprague-Dawley rat at 5 mg/kg, iv measured upto 24 hrs by HPLC-MS analysis; format: ADME, organism-based; conditions: in vivo
[9] = tested on: HT-29; assay: Induction of cell cycle arrest in human HT-29 cells assessed as accumulation of cells at S phase at 100 nM incubated for 24 hrs by flow cytometry analysis (reference value: 20.8 %); format: functional
[10] = Toxicity in ICR mouse assessed as effect on WBC count at 10 to 40 mg/kg, iv administered every 2 days and measured after 14 days; format: organism-based; conditions: in vivo, 336 h, dose 10-40 mg/kg, time 14 day
[11] = Toxicity in ICR mouse assessed as effect on lymphocytes count at 10 to 40 mg/kg, iv administered every 2 days and measured after 14 days; format: organism-based; conditions: in vivo, 336 h, dose 10-40 mg/kg, time 14 day
[12] = Toxicity in ICR mouse assessed as effect on granulocytes count at 10 to 40 mg/kg, iv administered every 2 days and measured after 14 days; format: organism-based; conditions: in vivo, 336 h, dose 10-40 mg/kg, time 14 day
[13] = tested on: HT-29; assay: Induction of apoptosis in human HT-29 cells assessed as necrotic cells at 200 nM incubated for 24 hrs by FITC/PI staining based flow cytometry analysis (reference value: 0.017 %); format: functional
[14] = tested on: HT-29; assay: Induction of cell cycle arrest in human HT-29 cells assessed as reduction in p-CDC2 expression incubated for 24 hrs by Western blot analysis; format: functional, cell-based; conditions: dose 50-200 nM
[15] = tested on: PC-3; assay: Antiproliferative activity against human PC-3 cells assessed as cell viability incubated for 72 hrs by MTT assay; format: functional, cell-based; conditions: PC-3, 72 h
[16] = Half life in Sprague-Dawley rat at 5 mg/kg, iv measured upto 24 hrs by HPLC-MS analysis; format: ADME, organism-based; conditions: in vivo
[17] = Toxicity in ICR mouse assessed as effect on BUN level at 10 to 40 mg/kg, iv administered every 2 days and measured after 14 days; format: organism-based; conditions: in vivo, 336 h, dose 10-40 mg/kg, time 14 day
[18] = Toxicity in ICR mouse assessed as effect on monocyte count at 10 to 40 mg/kg, iv administered every 2 days and measured after 14 days; format: organism-based; conditions: in vivo, 336 h, dose 10-40 mg/kg, time 14 day
[19] = tested on: HepG2; assay: Antiproliferative activity against human HepG2 cells assessed as cell viability incubated for 72 hrs by MTT assay; format: functional, cell-based; conditions: HepG2, 72 h
[20] = tested on: HT-29; assay: Induction of cell cycle arrest in human HT-29 cells assessed as accumulation of cells at G2 phase at 100 nM incubated for 24 hrs by flow cytometry analysis (reference value: 13 %); format: functional
[21] = tested on: A549; assay: Inhibition of cell invasion in human A549 cells measured for 24 hrs by Transwell assay; format: functional, cell-based; conditions: dose 50-100 nM
[22] = tested on: HT-29; assay: Induction of apoptosis in human HT-29 cells assessed as late apoptotic cells at 50 nM incubated for 24 hrs by FITC/PI staining based flow cytometry analysis (reference value: 0.20%); format: functional
[23] = tested on: HT-29; assay: Induction of apoptosis in human HT-29 cells assessed as viable cells at 50 nM incubated for 24 hrs by FITC/PI staining based flow cytometry analysis (reference value: 91.6%); format: functional; conditions: read-out: Activity
[24] = molecular target: T1, Tubulin (Homo sapiens); assay: Inhibition of tubulin polymerization in human HT-29 cells assessed as upregulation of DeY- alpha-tubulin expression 50 to 200 nM incubated for 24 hrs by Western blot analysis; format: cell-based; conditions: dose 50-200 nM
[25] = tested on: HT-29; assay: Induction of cell cycle arrest in human HT-29 cells assessed as accumulation of cells at G2 phase at 200 nM incubated for 24 hrs by flow cytometry analysis (reference value: 13 %); format: functional
[26] = Binding affinity to porcine brain tubulin assessed as dissociation constant measured after 20 mins by fluorescence based analysis; design: species or system Sus scrofa
[27] = tested on: HT-29; assay: Induction of cell cycle arrest in human HT-29 cells assessed as accumulation of cells at G1 phase at 200 nM incubated for 24 hrs by flow cytometry analysis (reference value: 67.6%); format: functional
[28] = Toxicity in ICR mouse assessed as effect on CK level at 10 to 40 mg/kg, iv administered every 2 days and measured after 14 days; format: organism-based; conditions: in vivo, 336 h, dose 10-40 mg/kg, time 14 day
[29] = tested on: MCF7; assay: Antiproliferative activity against human MCF7 cells assessed as cell viability incubated for 72 hrs by MTT assay; format: functional, cell-based; conditions: MCF7, 72 h
[30] = tested on: HT-29; assay: Induction of cell cycle arrest in human HT-29 cells assessed as accumulation of cells at S phase at 50 nM incubated for 24 hrs by flow cytometry analysis (reference value: 20.8 %); format: functional
[31] = tested on: HT-29; assay: Induction of apoptosis in human HT-29 cells assessed as necrotic cells at 100 nM incubated for 24 hrs by FITC/PI staining based flow cytometry analysis (reference value: 0.017 %); format: functional
[32] = tested on: Mitochondrial membrane; assay: Induction of mitochondrial membrane potential loss in human HT-29 cells incubated for 24 hrs by JC-1 staining based confocal microscopic analysis; format: cell membranes; conditions: dose 50-100 nM
[33] = tested on: HT-29; assay: Induction of apoptosis in human HT-29 cells assessed as late apoptotic cells at 200 nM incubated for 24 hrs by FITC/PI staining based flow cytometry analysis (reference value: 0.20%); format: functional
[34] = tested on: HT-29; assay: Induction of apoptosis in human HT-29 cells assessed as viable cells at 200 nM incubated for 24 hrs by FITC/PI staining based flow cytometry analysis (reference value: 91.6%); format: functional; conditions: read-out: Activity
[35] = tested on: A549; assay: Inhibition of cell migration in human A549 cells incubated for 24 hrs by wound healing assay; format: functional, cell-based; conditions: dose 50-100 nM
[36] = tested on: HT-29; assay: Induction of apoptosis in human HT-29 cells assessed as viable cells at 100 nM incubated for 24 hrs by FITC/PI staining based flow cytometry analysis (reference value: 91.6%); format: functional; conditions: read-out: Activity
[37] = tested on: Mitochondrial membrane; assay: Induction of mitochondrial membrane potential loss in human HT-29 cells assessed as decrease in red fluorescence at 50 to 100 nM incubated for 24 hrs by JC-1 staining based confocal microscopic analysis; format: cell membranes; conditions: dose 50-100 nM

Vd [1]: 1.03 L/kg
IC50 [4]: 51 nM
IC50 [5]: 3160 nM
inhibition [6]: Dose-dependent-effect
clearance [8]: 22.2 mL/min/kg
IC50 [15]: 130 nM
half-life [16]: 30.6 min
IC50 [19]: 190 nM
inhibition [24]: Active
Kd [26]: 8790 nM
IC50 [29]: 110 nM
Activity [32]: Dose-dependent-effect
Activity [37]: Active
SMILES: COc1ccc(N(C)c2nc(/C=C/c3cccc(OC)c3)nc3ccccc23)cc1
Activity [2]: 2.87%
Activity [3]: Non-toxic
Activity [7]: Non-toxic
Activity [9]: 24.9%
Activity [10]: Non-toxic
Activity [11]: Non-toxic
Activity [12]: Non-toxic
Activity [13]: 1.36%
Activity [14]: Dose-dependent-effect
Activity [17]: Non-toxic
Activity [18]: Non-toxic
Activity [20]: 39.8%
inhibition [21]: Dose-dependent-effect
Activity [22]: 13.6%
viability at 0.05 µM [23]: 72%
Activity [25]: 69.8%
Activity [27]: 23.5%
Activity [28]: Non-toxic
Activity [30]: 16.5%
Activity [31]: 2.72%
Activity [33]: 37.3%
viability at 0.2 µM [34]: 43.2%
inhibition [35]: Dose-dependent-effect
viability at 0.1 µM [36]: 67.2%
